The results in this text go back to PubChem BioAssay AID651836 (Sanford-Burnham Center for Chemical Genomics, 2012).

In this assay the test system is Gli-SUFU luciferase reporter cells, luminescence. The assay is described as follows: analogs blocking Gli reporter signaling – cell-based, luciferase luminescence, set 1, SAR follow-up (AID 651836).

Where “and” joins values, the source holds several entries; their conditions need not be identical. Identical values can stand only once. Calls of active or inactive are those of the source. How the calls were made is not given here.

As usually defined, the IC50 is the point on the concentration scale where inhibition reaches its midpoint. For the compound `N#Cc1ccc(C(=O)Nc2cc(N3CCCCC3)ncn2)cc1`, the IC50 is > 11.7 µM (inactive).

On to `CC(C)CNc1cc(NC(=O)c2cccc(F)c2)ncn1`, for which the IC50 is > 11.7 µM (inactive).

As for `N#Cc1cccc(C(=O)Nc2cc(N3CCCCC3)ncn2)c1`, the IC50 was > 11.7 µM (inactive).

As to `O=C(Nc1cc(N2CCCCC2)ncn1)c1ccc(C(F)(F)F)cc1`, the IC50 was > 11.7 µM (inactive).

As to `O=C(Nc1cc(NCC2CCCO2)ncn1)c1ccccc1` (stereo unspecified), the IC50 was > 11.7 µM (inactive).

For `CN1CCN(c2cc(NC(=O)c3ccccc3)ncn2)CC1`, the IC50 is > 11.7 µM (inactive).

On to `O=C(Nc1cc(N2CCOCC2)ncn1)c1ccccc1`, for which the IC50 was > 11.7 µM (inactive).

With `CC1CCN(c2cc(NC(=O)c3ccccc3)ncn2)CC1`, the IC50 is 0.037 µM.

Regarding `CCN(CC)c1cc(NC(=O)c2ccccc2)nc(C)n1`, the IC50 is > 11.7 µM (inactive).

On to `O=C(Nc1cc(N2CCCC2)ncn1)c1ccccc1`, for which the IC50 was > 11.7 µM (inactive).

Turning to `CCC(C)Nc1cc(NC(=O)c2ccccc2)ncn1` (stereo unspecified), the IC50 is > 11.7 µM (inactive).

As to `O=C(Nc1cc(N2CCCCC2)ncn1)c1ccccc1C(F)(F)F`, the IC50 was > 11.7 µM (inactive).

Consider `Cc1ccc(C(=O)Nc2cc(N3CCCCC3)ncn2)cc1`, for which the IC50 is > 11.7 µM (inactive).

For `O=C(Nc1cc(N2CCCCC2)ncn1)c1ccc(Cl)cc1`, the IC50 is > 11.7 µM (inactive).

As for `O=C(Nc1cc(N2CCCCC2)ncn1)c1ccc(Br)o1`, the IC50 is > 11.7 µM (inactive).

Regarding `COc1cccc(C(=O)Nc2cc(N3CCCCC3)ncn2)c1`, the IC50 was > 11.7 µM (inactive).

`CCCCNc1cc(NC(=O)c2ccccc2)ncn1`: the IC50 is > 11.7 µM (inactive).

`CCN(CC)c1cc(NC(=O)c2ccccc2F)ncn1`: the IC50 was 0.556 µM.

As for `CCN(CC)c1cc(NC(=O)c2cc(OC)cc(OC)c2)ncn1`, the IC50 was > 11.7 µM (inactive).

In the case of `CN(C)c1cc(NC(=O)c2cccc(C#N)c2)ncn1`, the IC50 was > 11.7 µM (inactive).

Turning to `O=C(Nc1cc(N2CCCC2)ncn1)c1ccccc1F`, the IC50 is > 11.7 µM (inactive).

With `COc1cc(OC)cc(C(=O)Nc2cc(N3CCCC3)ncn2)c1`, the IC50 was > 11.7 µM (inactive).

Regarding `O=C(Nc1cc(N2CCCCC2)ncn1)c1cccc(F)c1`, the IC50 was > 11.7 µM (inactive).

In the case of `CCN(CC)c1cc(NC(=O)c2cccc(C#N)c2)ncn1`, the IC50 was > 11.7 µM (inactive).

`O=C(Nc1cc(N2CCCCC2)ncn1)c1ccccc1`: the IC50 was 0.0566 µM and 0.0242 µM.

With `O=C(Nc1cc(N2CCCCC2)ncn1)c1cccs1`, the IC50 is > 11.7 µM (inactive).

Regarding `O=C(Nc1cc(N2CCSCC2)ncn1)c1ccccc1`, the IC50 was > 11.7 µM (inactive).

Turning to `Cc1nc(NC(=O)c2ccccc2)cc(N2CCCCC2)n1`, the IC50 was > 11.7 µM (inactive).

For the compound `CC(C)Nc1cc(NC(=O)c2ccccc2)ncn1`, the IC50 was > 11.7 µM (inactive).

As for `O=C(Nc1cc(N2CCCCCC2)ncn1)c1ccccc1`, the IC50 was 0.0741 µM.

With `COc1cc(OC)cc(C(=O)Nc2cc(N3CCCCC3)ncn2)c1`, the IC50 was > 11.7 µM (inactive).

With `CN(C)c1cc(NC(=O)c2ccccc2)ncn1`, the IC50 is > 11.7 µM (inactive).

With `CCN(CC)c1cc(NC(=O)c2ccc(Br)o2)ncn1`, the IC50 is > 11.7 µM (inactive).

For the compound `CC(C)CNc1cc(NC(=O)c2ccccc2)ncn1`, the IC50 was > 11.7 µM (inactive).

For `CN(C)c1cc(NC(=O)c2cccc(F)c2)ncn1`, the IC50 was > 11.7 µM (inactive).

With `O=C(Nc1cc(N2CCCCC2)ncn1)c1ccc2ccccc2c1`, the IC50 is > 11.7 µM (inactive).

In the case of `CCN(CC)c1cc(NC(=O)c2cccc(F)c2)ncn1`, the IC50 is > 11.7 µM (inactive).

Regarding `O=C(Nc1cc(N2CCCCC2)ncn1)c1ccsc1`, the IC50 is > 11.7 µM (inactive).

`COc1cc(OC)cc(C(=O)Nc2cc(Nc3cccc(Cl)c3)ncn2)c1`: the IC50 is > 11.7 µM (inactive).

Consider `CN(C)c1cc(NC(=O)c2ccccc2F)ncn1`, for which the IC50 is > 11.7 µM (inactive).

Take `O=C(Nc1cc(N2CCCCC2)ncn1)c1cc2ccccc2s1`: the IC50 was > 11.7 µM (inactive).

With `COc1cc(OC)cc(C(=O)Nc2cc(N(C)C)ncn2)c1`, the IC50 was > 11.7 µM (inactive).

Turning to `O=C(Nc1cc(N2CCCCC2)ncn1)c1cccc2ccccc12`, the IC50 is > 11.7 µM (inactive).

In the case of `CCOc1ccc(S(=O)(=O)NCc2ccncc2)cc1NC(=O)c1ccccc1`, the IC50 is 0.636 µM.

For the compound `O=C(Nc1cc(N2CCCC2)ncn1)c1cccc(F)c1`, the IC50 was > 11.7 µM (inactive).

Consider `CC1CCCCN1c1cc(NC(=O)c2ccccc2)ncn1` (stereo unspecified), for which the IC50 was > 11.7 µM (inactive).

For `O=C(Nc1cc(N2CCCCC2)ncn1)c1ccco1`, the IC50 was > 11.7 µM (inactive).

As to `CC(C)(C)OC(=O)N1CCN(c2cc(NC(=O)c3ccccc3)ncn2)CC1`, the IC50 was > 11.7 µM (inactive).

As for `O=C(Nc1cc(N2CCCCC2)ncn1)c1ccccc1F`, the IC50 was 0.176 µM.

Regarding `CCOc1ccc(-c2nc(CSCC(=O)NC3CC3)c(C)o2)cc1`, the IC50 is 0.0378 µM.

For the compound `CC(C)(C)Nc1cc(NC(=O)c2ccccc2)ncn1`, the IC50 is > 11.7 µM (inactive).

Consider `O=C(Nc1cc(N2CCNCC2)ncn1)c1ccccc1`, for which the IC50 was > 11.7 µM (inactive).

With `CCCCN(C)c1cc(NC(=O)c2ccccc2)ncn1`, the IC50 was > 11.7 µM (inactive).

Consider `Cc1nc(NC(=O)c2ccccc2)cc(N2CCCC2)n1`, for which the IC50 was > 11.7 µM (inactive).

For `Cc1nc(NC(=O)c2ccccc2)cc(N(C)C)n1`, the IC50 was > 11.7 µM (inactive).

Turning to `CCN(CC)c1cc(NC(=O)c2ccccc2)ncn1`, the IC50 is > 11.7 µM (inactive).
